Reference: ChEMBL document CHEMBL1130795, “Synthesis and SAR of a novel, potent and structurally simple LTD4 antagonist of the quinoline class” (Bioorg Med Chem Lett, 1998)
pIC50: −log10 of the molar value. The source made the active and inactive calls. No cut-off for these calls is given here.

Key:
[1] = target: Cysteinyl leukotriene receptor 1 (Cavia porcellus); experiment: In vitro for antagonistic activity against LTD4 receptor in guinea pig ileum
[2] = tested on: Cavia porcellus; experiment: Compound was evaluated in vivo for LTD4-induced bronchospasm in guinea pig; type: functional
[3] = target: T1, Cysteinyl leukotriene receptor 1 (Cavia porcellus, UniProt Q2NNR5); experiment: In vitro inhibition of [3H]LTD4 binding to guinea pig lung membrane; type: tissue-based
T1 sequence (Q2NNR5 whole entry): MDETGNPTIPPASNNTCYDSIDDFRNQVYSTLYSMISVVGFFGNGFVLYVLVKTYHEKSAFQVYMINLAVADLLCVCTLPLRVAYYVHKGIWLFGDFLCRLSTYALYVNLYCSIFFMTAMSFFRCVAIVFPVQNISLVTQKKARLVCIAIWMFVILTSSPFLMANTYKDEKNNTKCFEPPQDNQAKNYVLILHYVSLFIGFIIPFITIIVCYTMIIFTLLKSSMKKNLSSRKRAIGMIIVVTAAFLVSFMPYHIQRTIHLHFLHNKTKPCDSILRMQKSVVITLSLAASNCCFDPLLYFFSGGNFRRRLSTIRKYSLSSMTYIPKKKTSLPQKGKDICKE

[4] = target: T2, Cysteinyl leukotriene receptor 1 (Cavia porcellus) (UniProt Q2NNR5); experiment: In vitro antagonistic activity against LTD4 in guinea pig ileum at 200 nM; type: functional, tissue-based
T2 sequence (whole entry): T1 sequence (Q2NNR5 whole entry)

[5] = target: T2, Cysteinyl leukotriene receptor 1 (Cavia porcellus); experiment: In vitro antagonistic activity against LTD4 in guinea pig ileum at 240 nM; type: functional, tissue-based
[6] = tested on: Cavia porcellus; experiment: Compound was evaluated in vivo for LTD4-induced bronchospasm in guinea pig; IA means inactive at 10 mg/kg p.o.; type: functional, organism-based; design: dose 10 mg/kg

SMILES | IC50 [1] | other results
CCC(CC)(CC(=O)Nc1cccc(OCc2ccc3ccc(Br)cc3n2)c1)C(=O)O | 4 nM | –
CCC(CC)(CC(=O)Nc1cccc(OCc2ccc3ccc(F)cc3n2)c1)C(=O)O | 0.2 nM | ED50 [2]: 0.07 mg/kg; pIC50 [3]: 8.22
CCC(CC)(CC(=O)Nc1cccc(OCc2ccc3ccc(OCc4ccccc4)cc3n2)c1)C(=O)O | – | inhibition [4]: 0%
CCC(CC)(CC(=O)Nc1cccc(OCc2ccc3cc(C)ccc3n2)c1)C(=O)O | 24 nM | –
CCC(CC)(CC(=O)O)C(=O)Nc1cccc(OCc2ccc3ccc(F)cc3n2)c1 | 140 nM | –
CCC(CC)(CC(=O)Nc1cccc(OCc2ccc3ccc(O)cc3n2)c1)C(=O)O | – | inhibition [5]: 0%
O=C(CC1(C(=O)O)CCCC1)Nc1cccc(OCc2ccc3ccc(F)cc3n2)c1 | 10 nM | –
CCC(CC)(CC(=O)Nc1cccc(OCc2ccc3ccc(C(C)=O)cc3n2)c1)C(=O)O | 2500 nM | –
CCC(CC)(CC(=O)Nc1cccc(/C=C/c2ccc3ccc(F)cc3n2)c1)C(=O)O | 0.4 nM | –
CCC(CC)(CC(=O)Nc1cccc(OCc2ccc3cc(F)c(F)cc3n2)c1)C(=O)O | 0.5 nM | –
CCC(CC)(CC(=O)Nc1cccc(SCc2ccc3ccc(F)cc3n2)c1)C(=O)O | 4 nM | –
CCC(C)(CC(=O)Nc1cccc(OCc2ccc3ccc(F)cc3n2)c1)C(=O)O (configuration not stated) | 6.4 nM | –
O=C(O)CCC(=O)Nc1cccc(OCc2ccc3ccc(F)cc3n2)c1 | 200 nM | –
CCC(CC)(CC(=O)Nc1cccc(OCc2ccc3c(F)cccc3n2)c1)C(=O)O | 0.3 nM | –
CCC(CC)(CC(=O)Nc1cccc(OCc2ccc3ccccc3n2)c1)C(=O)O | 0.9 nM | ED50 [2]: 0.42 mg/kg; pIC50 [3]: 8.05
CCC(CC)(CC(=O)Nc1cccc(OCc2ccc3ccc(OC)cc3n2)c1)C(=O)O | 80 nM | –
CCC(CC)(CC(=O)Nc1cccc(OCc2ccc3cc(F)ccc3n2)c1)C(=O)O | 2 nM | –
CC(C)(CC(=O)Nc1cccc(OCc2ccc3ccc(F)cc3n2)c1)C(=O)O | 1.4 nM | –
CCC(CC)(CC(=O)Nc1cccc(OCc2ccc3cc4c(cc3n2)CCC4)c1)C(=O)O | 9 nM | –
CCC(CC)(CC(=O)Nc1cccc(OCc2ccc3cc(C)c(C)cc3n2)c1)C(=O)O | 11 nM | –
O=C(CC1(C(=O)O)CCCCC1)Nc1cccc(OCc2ccc3ccc(F)cc3n2)c1 | 7.3 nM | –
CCCC(CCC)(CC(=O)Nc1cccc(OCc2ccc3ccc(F)cc3n2)c1)C(=O)O | 2 nM | –
CCC(CC)(CC(=O)Nc1cccc(OCc2ccc3cccc(F)c3n2)c1)C(=O)O | 6 nM | –
COc1cc(C(=O)NS(=O)(=O)c2ccccc2C)ccc1Cc1cn(C)c2ccc(NC(=O)OC3CCCC3)cc12 [ZAFIRLUKAST] | – | ED50 [2]: 0.55 mg/kg
CCC(CC)(CC(=O)Nc1cccc(OCc2ccc3ccc(C(F)(F)F)cc3n2)c1)C(=O)O | 3 nM | ED50 [6]: inactive
CCC(CC)(CC(=O)Nc1cccc(OCc2ccc3ccc(C)cc3n2)c1)C(=O)O | 11 nM | –
CCC(CC)(CC(=O)Nc1cccc(OCc2ccc3ccc(OC(F)(F)F)cc3n2)c1)C(=O)O | 9 nM | –
CCCCC(CCCC)(CC(=O)Nc1cccc(OCc2ccc3ccc(F)cc3n2)c1)C(=O)O | 1 nM | –
CCC(CC)(CC(=O)Nc1cccc(OCc2ccc3ccc(Cl)cc3n2)c1)C(=O)O | 0.8 nM | ED50 [2]: 0.11 mg/kg; pIC50 [3]: 7.19
CCC(CC)(CC(=O)Nc1cccc(COc2ccc3ccccc3n2)c1)C(=O)O | 3900 nM | –
